According to US8426385B2 (Hainan Hdeton Science and Technology Co. Ltd., priority 2006, dated 2013):
Values after ≈ are worked out from the molar mass of the structure shown.

Legend:
[1] = Determination of inclusion stability constant Ka by UV spectrophotometry; format: physicochemical; details: 234 nm
Protocol: The inclusion stability constant Ka is used to determine the degree of inclusion and UV spectrophotometry is one of common methods to determine Ka. […] Meanwhile, the changes of Ka after adding ethanol are determined in the test, and the Ka values of different cyclodextrins are shown in Table 1.

[2] = Inclusion solubilization test (paclitaxel solubility in cyclodextrin solution); format: physicochemical; details: 25° C.; for Paclitaxel solubility in cyclodextrin solution: 72 h
Description: A standard curve was plotted by A and concentration C (mg/ml) (A=393.2 C−0.0123; r=0.9998).

[3] = cited from earlier work
[4] = Paclitaxel stability test in solution (HPLC assay); format: physicochemical; details: mobile phase pH=6.50, diluted 100 times
Protocol: (§1) HPLC chromatographic conditions: chromatographic column ODS C18 (250 mm×4.6 mm); mobile phase: methanol:water:acetonitrile (20:30:50); flow rate: 1.0 ml/min; detection wavelength: 228 nm; detection time: 30.00 min; detection sensitivity: 1.0000 AUFS.
The sample solutions had stable chemical properties and the content was basically unchanged.

[5] = Animal body weight in the S180 anti-tumor test; details: S180 solid tumor, Kunming mice, intraperitoneal, 7 days
[6] = Solid inclusion stability, 5-day acceleration test (HPLC content); format: physicochemical
Protocol: as §1
Samples were put in a sealed transparent container and then placed in an illumination box equipped with fluorescent light of 4500±500 LX illumination intensity for 5 days. Sampling inspection analysis was conducted, and the test results were compared with the samples of 0 day.
Samples were placed in a clean sealed container at temperature of 60° C. for 5 days. Sampling inspection analysis was conducted, and the test results were compared with the samples of 0 day.
Samples were placed in a sealed container of constant humidity at temperature of 25° C. and relative humidity of 90±5% for 5 days. Sampling inspection analysis was conducted, and the test results were compared with the samples of 0 day.

[7] = tested on: S180 cells; assay: In vivo anti-tumor effect, S180 solid tumor model; details: Kunming mice, intraperitoneal, 7 days, 5 mg/kg dose (printed for the inclusion)
[8] = phase solubility studies; cited from earlier work
[9] = about 50% cyclodextrin aqueous solution, pure water; cited from earlier work
[10] = aqueous solution; UV spectrum study; cited from earlier work
[11] = cyclodextrin concentration 31 %

hydroxypropyl-sulfobutyl-β-cyclodextrin
first-level apparent stability constant Ka of cyclodextrin/paclitaxel ([1]; 60% EtOH): 19722 M⁻¹
first-level apparent stability constant Ka of cyclodextrin/paclitaxel ([1]; H2O): 14121 M⁻¹
Paclitaxel solubility in cyclodextrin solution [2, 11]: 11177 µg/mL

sulfobutyl-β-cyclodextrin
first-level apparent stability constant Ka of cyclodextrin/paclitaxel ([1]; 60% EtOH): 9367 M⁻¹
first-level apparent stability constant Ka of cyclodextrin/paclitaxel ([1]; H2O): 5396 M⁻¹
Paclitaxel solubility in cyclodextrin solution ([2]; cyclodextrin concentration 25 %): 9324 µg/mL
Paclitaxel solubility in cyclodextrin solution [2, 11]: 10182 µg/mL
water-solubility [3]: > 50 g/100 g H2O

OC[C@H]1O[C@@H]2O[C@H]3[C@H](O)[C@@H](O)[C@@H](O[C@H]4[C@H](O)[C@@H](O)[C@@H](O[C@H]5[C@H](O)[C@@H](O)[C@@H](O[C@H]6[C@H](O)[C@@H](O)[C@@H](O[C@H]7[C@H](O)[C@@H](O)[C@@H](O[C@H]8[C@H](O)[C@@H](O)[C@@H](O[C@H]1[C@H](O)[C@H]2O)O[C@@H]8CO)O[C@@H]7CO)O[C@@H]6CO)O[C@@H]5CO)O[C@@H]4CO)O[C@@H]3CO [β-cyclodextrin]
first-level apparent stability constant Ka of cyclodextrin/paclitaxel ([1]; H2O): 413 M⁻¹

CC(=O)O[C@H]1C(=O)[C@@]2(C)[C@H]([C@H](OC(=O)c3ccccc3)[C@]3(O)C[C@H](OC(=O)[C@H](O)[C@@H](NC(=O)c4ccccc4)c4ccccc4)C(C)=C1C3(C)C)[C@]1(OC(C)=O)CO[C@@H]1C[C@@H]2O [Paclitaxel, (2S,5R,7S,10R,13S)-10,20-bi(acetoxy)-2-benzoyl-oxy-1,7-dihydroxy-9-oxo-5,20-epoxy taxanes-11-ene-13-radical(3S)-3-benzoyl amino-3-phenyl-D-lactic acid ester]
Content in aqueous solution ([4]; 0 h): 99.745%
Content in aqueous solution ([4]; 2 h): 99.700%
Content in aqueous solution ([4]; 4 h): 99.577%
Content in aqueous solution ([4]; 6 h): 99.648%
Content in aqueous solution ([4]; 8 h): 99.608%
effect on animal body weight [5]: reduce the animal body weight
weight loss of animals compared with the inclusion group [5]: greater
solubility at 72 h ([2]; thermodynamic from solid, pure water, cyclodextrin concentration 0 %): 0.589 µg/mL (≈ 0.69 µM)
Content ([6]; 0 day): 99.748%
Content ([6]; High humidity, 25° C., RH 90±5%, 5 days): 89.336%
Content ([6]; High temperature, 60° C., 5 days): 91.569%
Content ([6]; Light, 4500±500 LX, 5 days): 90.346%
anti-tumor rate [7]: 82.77%

OC[C@H]1O[C@@H]2O[C@H]3[C@H](O)[C@@H](O)[C@@H](O[C@H]4[C@H](O)[C@@H](O)[C@@H](O[C@H]5[C@H](O)[C@@H](O)[C@@H](O[C@H]6[C@H](O)[C@@H](O)[C@@H](O[C@H]7[C@H](O)[C@@H](O)[C@@H](O[C@H]8[C@H](O)[C@@H](O)[C@@H](O[C@H]9[C@H](O)[C@@H](O)[C@@H](O[C@H]1[C@H](O)[C@H]2O)O[C@@H]9CO)O[C@@H]8CO)O[C@@H]7CO)O[C@@H]6CO)O[C@@H]5CO)O[C@@H]4CO)O[C@@H]3CO [γ-cyclodextrin]
dual-inclusion constant with paclitaxel [8]: 785 M⁻¹

hydroxypropyl-β-cyclodextrin
paclitaxel solubility [9]: 3400 µg/mL
inclusion constant [10]: 3030 M⁻¹
first-level apparent stability constant Ka of cyclodextrin/paclitaxel ([1]; 60% EtOH): 4646 M⁻¹
first-level apparent stability constant Ka of cyclodextrin/paclitaxel ([1]; H2O): 1325 M⁻¹
dual-inclusion constant with paclitaxel [8]: 7965 M^−
